# Measurements reported in patent US12606520B2, “Calpain-2 inhibitor compounds and methods of treatment” (WESTERN UNIVERSITY OF HEALTH SCIENCES, priority 2020, dated 2026).
# Assays:
# [1] = Stability in mouse liver homogenate (residual inhibition of purified human calpain-2); type: in vitro ADME; details: B-cyclodextrin formulation, read-out: Estimated half-life in mouse liver homogenate (converted)
# Method: Aliquots were taken and the degree of inhibition of purified human calpain-2 was measured. Results were normalized to the maximum degree of inhibition (100%) measured at t0.
# [2] = PK in mice after iv injection of liposomal NA112: brain; type: in vivo; details: mice iv 10 mg/kg liposomes, 24 hr; BLQ: below the limit of quantification, assay sensitivity 2 ng/ml
# calpain-2 = molecular target: T1, calpain-2 (Rattus norvegicus, UniProt Q07009); assay: Calpain-2 activity in brain after TBI in rats; type: in vivo; details: 1 mg/kg i.p. at 1 h and 8 h after TBI, 24 h after TBI
# T1 construct: from tissue; host or cells: rat brain after TBI
# T1 sequence (Q07009 1-700): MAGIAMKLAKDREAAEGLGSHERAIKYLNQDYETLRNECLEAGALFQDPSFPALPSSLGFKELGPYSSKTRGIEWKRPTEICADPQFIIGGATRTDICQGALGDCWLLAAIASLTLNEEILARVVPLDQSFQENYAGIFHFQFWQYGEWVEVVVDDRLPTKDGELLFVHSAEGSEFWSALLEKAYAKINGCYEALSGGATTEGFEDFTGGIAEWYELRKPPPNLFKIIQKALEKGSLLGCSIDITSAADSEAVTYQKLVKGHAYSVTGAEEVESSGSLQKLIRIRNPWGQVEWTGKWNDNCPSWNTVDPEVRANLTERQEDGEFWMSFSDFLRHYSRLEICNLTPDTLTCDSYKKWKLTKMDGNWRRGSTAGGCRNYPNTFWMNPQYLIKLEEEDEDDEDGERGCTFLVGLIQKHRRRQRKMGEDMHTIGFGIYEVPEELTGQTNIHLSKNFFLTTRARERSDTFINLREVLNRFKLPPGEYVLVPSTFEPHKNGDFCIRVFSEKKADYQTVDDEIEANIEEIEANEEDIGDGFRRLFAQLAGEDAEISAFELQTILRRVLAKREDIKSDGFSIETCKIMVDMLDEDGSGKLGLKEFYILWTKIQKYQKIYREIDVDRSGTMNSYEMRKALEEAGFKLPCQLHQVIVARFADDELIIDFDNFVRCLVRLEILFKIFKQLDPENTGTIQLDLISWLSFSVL
# T1 sequence (Q64537 1-270 partner): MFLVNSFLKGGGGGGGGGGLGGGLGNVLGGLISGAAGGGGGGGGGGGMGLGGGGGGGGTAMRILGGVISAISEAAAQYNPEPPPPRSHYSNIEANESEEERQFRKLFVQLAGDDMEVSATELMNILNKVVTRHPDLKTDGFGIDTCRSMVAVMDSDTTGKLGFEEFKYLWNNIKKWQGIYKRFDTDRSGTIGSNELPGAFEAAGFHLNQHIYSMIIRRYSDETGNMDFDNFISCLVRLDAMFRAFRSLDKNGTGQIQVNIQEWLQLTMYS
# Method: (§1) We also performed the same model of TBI in male and female mice and in male and female rats. In all cases, NA184 was injected i.p. at 1 mg/kg. For the rat experiments, NA184 was injected twice at 1 h and 8 h after TBI. Animals were sacrificed 24 h after TBI and calpain activity was assayed in brain and cell death was analyzed in cortex. […] In addition, there was a highly significant correlation between calpain-2 activity and cell death in rats (FIG. 23). R^2 was 0.61 and p<0.005.
# cell death in cortex = assay: Cell death in cortex 24 h after TBI in rats; type: in vivo; details: 1 mg/kg i.p. at 1 h and 8 h after TBI
# Method: as §1
Structure (SMILES),half-life [1],Brain concentration A1 [2],Brain concentration A2 [2],Brain concentration Mean [2],"Calpain-2 inhibition in brain, male and female rats (calpain-2)","Cell death in cortex, male and female rats (cell death in cortex)"
"CCC(NC(=O)[C@H](CC(C)C)NC(=O)NCc1ccccc1)C(=O)C(=O)NCc1cc(OC)cc(OC)c1 (mixture of isomers) [NA112, (2S)-2-(3-benzylureido)-N-(1-((3,5-dimethoxybenzyl)amino)-1,2-dioxopentan-3-yl)-4-methylpentanamide]",15 h,BLQ,BLQ,BLQ,,
"CCC(NC(=O)[C@H](CC(C)C)NC(=O)NCc1ccccc1)C(=O)C(=O)NCc1cccc(Cl)c1OC (stereo partly drawn) [NA184, (2S)-2-(3-benzylureido)-N-(1-((3-chloro-2-methoxybenzyl)amino)-1,2-dioxopentan-3-yl)-4-methylpentanamide]",,,,,significantly inhibited calpain-2,significantly prevented cell death
